From ChEMBL document CHEMBL1134132, “Development of potent and selective factor Xa inhibitors” (Bioorg Med Chem Lett, 2001)

Columns and labels:
[1] = target: Coagulation factor X (Homo sapiens, UniProt P00742); experiment: Inhibitory activity against Coagulation factor X in human plasma; format: cell-free
[2] = target: Prothrombin (Homo sapiens, UniProt P00734); experiment: Inhibitory activity against thrombin(fIIa) in human plasma; format: cell-free
[3] = target: Serine protease 1 (Homo sapiens, UniProt P07477); experiment: Inhibitory activity against trypsin in human plasma; format: cell-free
[4] = target: Plasminogen (Homo sapiens, UniProt P00747); experiment: Inhibitory activity against plasmin in human plasma; format: cell-free
[5] = target: Urokinase-type plasminogen activator (Homo sapiens, UniProt P00749)
[6] = In vitro anticoagulant effect to double the activated partial thromboplastin time in human plasma; format: functional

Sequence of Plasminogen (P00747 97-580 limits assumed): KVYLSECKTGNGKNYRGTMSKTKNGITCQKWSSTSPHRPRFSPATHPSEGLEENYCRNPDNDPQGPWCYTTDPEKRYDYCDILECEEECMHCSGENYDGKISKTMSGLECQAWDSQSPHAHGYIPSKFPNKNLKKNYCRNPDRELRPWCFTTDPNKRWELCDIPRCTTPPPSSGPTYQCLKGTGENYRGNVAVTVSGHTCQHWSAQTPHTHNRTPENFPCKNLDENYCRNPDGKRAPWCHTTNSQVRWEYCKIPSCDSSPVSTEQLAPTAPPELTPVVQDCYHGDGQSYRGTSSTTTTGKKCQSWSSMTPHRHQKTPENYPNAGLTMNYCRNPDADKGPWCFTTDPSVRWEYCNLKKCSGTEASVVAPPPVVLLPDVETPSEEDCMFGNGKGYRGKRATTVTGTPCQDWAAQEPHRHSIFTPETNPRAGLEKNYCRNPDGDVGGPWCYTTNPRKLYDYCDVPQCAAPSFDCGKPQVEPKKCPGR
Sequence of Plasminogen (P00747 581-810 limits assumed): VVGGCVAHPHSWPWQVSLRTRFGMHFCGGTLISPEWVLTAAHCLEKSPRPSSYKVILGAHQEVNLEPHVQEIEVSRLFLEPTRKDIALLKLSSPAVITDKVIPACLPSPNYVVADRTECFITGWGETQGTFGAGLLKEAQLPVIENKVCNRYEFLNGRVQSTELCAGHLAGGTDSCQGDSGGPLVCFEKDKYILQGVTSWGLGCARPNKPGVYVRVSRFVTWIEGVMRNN
Sequence of Coagulation factor X (P00742 41-179 limits assumed): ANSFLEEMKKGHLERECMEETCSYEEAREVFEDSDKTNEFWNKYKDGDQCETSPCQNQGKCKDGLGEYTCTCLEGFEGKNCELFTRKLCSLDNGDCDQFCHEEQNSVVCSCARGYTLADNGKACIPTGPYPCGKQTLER
Sequence of Coagulation factor X (P00742 235-488 limits assumed): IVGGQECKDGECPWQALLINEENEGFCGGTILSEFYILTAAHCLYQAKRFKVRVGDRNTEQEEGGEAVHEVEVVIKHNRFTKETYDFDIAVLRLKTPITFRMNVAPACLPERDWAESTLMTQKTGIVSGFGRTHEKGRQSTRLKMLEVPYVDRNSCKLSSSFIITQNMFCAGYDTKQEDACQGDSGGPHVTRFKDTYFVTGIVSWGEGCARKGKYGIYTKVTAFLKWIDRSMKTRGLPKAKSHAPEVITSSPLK
Sequence of Serine protease 1 (P07477 whole entry): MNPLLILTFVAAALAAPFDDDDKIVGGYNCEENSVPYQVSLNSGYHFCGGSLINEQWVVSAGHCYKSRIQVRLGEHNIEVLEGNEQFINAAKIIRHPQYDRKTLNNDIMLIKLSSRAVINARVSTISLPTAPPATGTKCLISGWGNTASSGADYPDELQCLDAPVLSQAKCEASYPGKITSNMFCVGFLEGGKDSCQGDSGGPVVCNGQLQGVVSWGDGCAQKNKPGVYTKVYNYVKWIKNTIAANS

For `O=C(O)CCc1cc(Br)c(O)c(-c2[nH]c3ccccc3c2Cc2ccccc2)c1`, the Ki [1] was 300000 nM and the Ki [2] was 700000 nM.
`Cc1cc(Br)c(O)c(-c2[nH]c3ccc(C(=N)N)cc3c2CCCc2ccccc2)c1` gave a Ki [3] of 42000 nM, a Ki [1] of 7600 nM and a Ki [4] of 32000 nM. For the same compound, the Ki [2] was 6600 nM and the Ki [5] was 8600 nM.
For `N=C(N)c1ccc2[nH]c(-c3cc(CCC(=O)O)cc(Br)c3O)c(Cc3ccccc3)c2c1`, the Ki [3] was 600 nM, the Ki [1] was 0.5 nM and the Ki [4] was 1700 nM. For the same compound, the Ki [2] was 120 nM, the Ki [5] was 280 nM and the “2x aPPT” value [6] was 0.52 µM.
For `COC(=O)Cc1cc(Br)c(O)c(-c2[nH]c3ccc(C(=N)N)cc3c2Cc2ccccc2)c1`, the Ki [1] was 3 nM and the Ki [2] was 80 nM.
In the case of `N=C(N)c1ccc2[nH]c(-c3cc(C(=O)O)cc(Br)c3O)c(Cc3ccccc3)c2c1`, the Ki [3] is reported as 440 nM, the Ki [1] is reported as 4 nM and the Ki [4] is reported as 1500 nM. For the same compound, the “2x aPPT” value [6] was 0.55 µM.
For `NC(=O)c1ccc2[nH]c(-c3cc(CCC(=O)O)cc(Br)c3O)c(Cc3ccccc3)c2c1`, the Ki [2] was 78000 nM.
In the case of `Cc1cc(Br)c(O)c(-c2cc3cc(C(=N)N)ccc3[nH]2)c1`, the Ki [3] is reported as 640 nM, the Ki [1] is reported as 100 nM and the Ki [4] is reported as 1200 nM. It also gave a Ki [2] of 360 nM and a Ki [5] of 110 nM.
For `N=C(N)c1ccc2[nH]c(-c3cc(Br)cc(CCC(=O)O)c3)c(Cc3ccccc3)c2c1`, the Ki [1] was 1000 nM and the Ki [2] was 12000 nM.
For `N=C(N)c1ccc2[nH]c(-c3cc(Cc4nn[nH]n4)cc(Br)c3O)c(Cc3ccccc3)c2c1`, the Ki [3] was 840 nM, the Ki [1] was 20 nM and the Ki [4] was 2200 nM. For the same compound, the Ki [2] was 440 nM, the Ki [5] was 350 nM and the “2x aPPT” value [6] was 0.59 µM.
`CN(C)C(=O)Cc1cc(Br)c(O)c(-c2[nH]c3ccc(C(=N)N)cc3c2Cc2ccccc2)c1` showed a Ki [1] of 2 nM and a Ki [2] of 43 nM.
Compound `N=C(N)c1ccc2[nH]c(-c3cc(CCCC(=O)O)cc(Br)c3O)c(Cc3ccccc3)c2c1` has a Ki [3] of 610 nM, a Ki [1] of 0.7 nM and a Ki [4] of 1500 nM. The Ki [2] was 40 nM, the Ki [5] was 270 nM and the “2x aPPT” value [6] was 0.75 µM.
In the case of `COc1c(Br)cc(CCC(=O)O)cc1-c1[nH]c2ccc(C(=N)N)cc2c1Cc1ccccc1`, the Ki [1] is reported as 45 nM and the Ki [2] is reported as 2500 nM.
Work on `N=C(N)c1ccc2[nH]c(-c3cc(CC(=O)O)cc(Br)c3O)c(Cc3ccccc3)c2c1` yielded a Ki [3] of 1200 nM, a Ki [1] of 3 nM and a Ki [4] of 1800 nM. The Ki [2] was 1000 nM, the Ki [5] was 430 nM and the “2x aPPT” value [6] was 0.38 µM.
`Cc1cc(Br)c(O)c(-c2[nH]c3ccc(C(=N)N)cc3c2Cc2ccccc2)c1` showed a Ki [3] of 2400 nM, a Ki [1] of 20 nM and a Ki [4] of 4600 nM. The Ki [2] was 260 nM, the Ki [5] was 1600 nM and the “2x aPPT” value [6] was 3.9 µM.
With `CC(C)(C(=O)O)c1cc(Br)c(O)c(-c2[nH]c3ccc(C(=N)N)cc3c2Cc2ccccc2)c1` the Ki [3] was 1300 nM, the Ki [1] was 10 nM and the Ki [4] was 3000 nM. The Ki [2] was 750 nM, the Ki [5] was 350 nM and the “2x aPPT” value [6] was 0.93 µM.
Compound `Cc1cc(-c2ccccc2)c(O)c(-c2cc3cc(C(=N)N)ccc3[nH]2)c1` has a Ki [3] of 1800 nM, a Ki [1] of 640 nM and a Ki [4] of 1500 nM. It also gave a Ki [2] of 4000 nM and a Ki [5] of 110 nM.
For `N=C(N)c1ccc2[nH]c(-c3cc(CC(N)=O)cc(Br)c3O)c(Cc3ccccc3)c2c1`, the Ki [1] was 2 nM and the Ki [2] was 25 nM.
Work on `N=C(N)c1ccc2[nH]c(-c3cc(-c4nn[nH]n4)cc(Br)c3O)c(Cc3ccccc3)c2c1` yielded a Ki [3] of 1300 nM, a Ki [1] of 10 nM and a Ki [4] of 4200 nM. For the same compound, the Ki [2] was 350 nM, the Ki [5] was 550 nM and the “2x aPPT” value [6] was 0.7 µM.
Compound `N=C(N)c1ccc2[nH]c(-c3cc(CCOP(=O)(O)O)cc(Br)c3O)c(Cc3ccccc3)c2c1` has a Ki [3] of 3800 nM, a Ki [1] of 0.5 nM and a Ki [4] of 1200 nM. The Ki [2] was 330 nM, the Ki [5] was 400 nM and the “2x aPPT” value [6] was 0.42 µM.
Work on `Cc1cc(Br)c(O)c(-c2[nH]c3ccc(C(=N)N)cc3c2CCc2ccccc2)c1` yielded a Ki [3] of 3400 nM, a Ki [1] of 350 nM and a Ki [4] of 8800 nM. The Ki [2] was 710 nM and the Ki [5] was 2300 nM.
For `Cc1cc(Cl)c(O)c(-c2cc3cc(C(=N)N)ccc3[nH]2)c1`, the Ki [3] was 700 nM, the Ki [1] was 130 nM and the Ki [4] was 1000 nM. For the same compound, the Ki [2] was 460 nM and the Ki [5] was 190 nM.
`Cc1cc(C)c(O)c(-c2cc3cc(C(=N)N)ccc3[nH]2)c1` showed a Ki [3] of 5000 nM, a Ki [1] of 1200 nM and a Ki [4] of 10000 nM. The Ki [2] was 6900 nM and the Ki [5] was 2300 nM.
Work on `Cc1ccc(O)c(-c2cc3cc(C(=N)N)ccc3[nH]2)c1` yielded a Ki [3] of 8200 nM, a Ki [4] of 21000 nM and a Ki [2] of 23000 nM. For the same compound, the Ki [5] was 12400 nM.
